Measurements published in patent US20050239656A1, “Pyridine compounds or salts thereof and herbicides containing the same” (priority 2002, published 2005).

How the values were obtained:
barnyardgrass [1] = test: Test Example 1: foliage treatment, upland pot test; format: in vivo, Echinochloa crus-galli L.; conditions: active ingredient 1000 g/ha, observed 18th to 23rd day, 0 = non-treated, 100 = complete kill
Procedure, shortened: (§1)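 Each plant species was sprayed once on its foliage, with wheat at 1.3–2.4, soybean at 0.1–0.4, barnyardgrass at 1.3–2.8 and rice at 1.2–2.6 leaves. Visual ratings of growth inhibition, 0 to 100%, followed 18–23 days later.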

velvetleaf [2] = test: Test Example 2: soil surface treatment, upland pot test; format: in vivo, Abutilon theophrasti MEDIC.; conditions: active ingredient 1000 g/ha, observed 20th to 28th day
Procedure, shortened: (§2)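 In this pre-emergence upland pot test, a small sprayer delivered the diluted compound formulation (1,500 L/ha water) to the soil surface the day after seeding. Plants were then observed, and control was scored from 0 to 100% some 20–28 days after treatment.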

soybean [3] = test: as above; format: in vivo, Glycine max Merr.; conditions: active ingredient 1000 g/ha, observed 20th to 28th day
Procedure, shortened: as §2

redroot pigweed [4] = test: as above; format: in vivo, Amaranthus retroflexus L.; conditions: active ingredient 1000 g/ha, observed 20th to 28th day
Procedure, shortened: as §2

soybean [5] = test: Test Example 1: foliage treatment, upland pot test; format: in vivo, Glycine max Merr.; conditions: crop, active ingredient 1000 g/ha, observed 18th to 23rd day, 0 = non-treated, 100 = complete kill
Procedure, shortened: as §1

tall morningglory = test: Test Example 1: foliage treatment, upland pot test; format: in vivo, Ipomoea purpurea L.; conditions: active ingredient 1000 g/ha, observed 18th to 23rd day, 0 = non-treated, 100 = complete kill
Description: Upland field soil was put into a 1/170,000 ha pot, and seed of various plants were sown. Then, when the plants reached predetermined leaf stages ((1) barnyardgrass: 1.3 to 2.8 leaf stages, (2) crabgrass: 1.0 to 2.8 leaf stages, (3) green foxtail: 1.3 to 2.6 leaf stages, (4) redroot pigweed: 0.1 to 1.2 leaf stages, (5) prickly sida: 0.1 to 1.2 leaf stages, (6) velvetleaf: 0.1 to 1.2 leaf stages, (7) tall morningglory: 0.1 to 1.5 leaf stages, (8) rice: 1.2 to 2.6 leaf stages, (9) wheat: 1.3 to 2.4 leaf stages, (10) corn, 2.1 to 3.2 leaf stages, (11) soybean: 0.1 to 0.4 leaf stage), a wettable powder or emulsifiable concentrate having the compound of the present invention formulated in accordance with a usual formulation method, was weighed so that the active ingredient would be a predetermined amount, and diluted with water in an amount of 500 L/ha. To the diluted solution, 0.1% (v/v) of agricultural spreader was added. The herbicide thus adjusted was applied by a small size sprayer for foliage treatment. On the 18th to 23rd days after the application of the herbicide, the growth of the respective plants was visually observed, and the herbicidal effects were evaluated by the growth controlling degrees (%) ranging from 0 (equivalent to the non-treated plot) to 100 (complete kill), whereby the results shown in Table 3, were obtained.

barnyardgrass [6] = test: Test Example 2: soil surface treatment, upland pot test; format: in vivo, Echinochloa crus-galli L.; conditions: active ingredient 1000 g/ha, observed 20th to 28th day, 0 = non-treated, 100 = complete kill
Procedure, shortened: as §2

velvetleaf [7] = test: Test Example 1: foliage treatment, upland pot test; format: in vivo, Abutilon theophrasti MEDIC.; conditions: active ingredient 1000 g/ha, observed 18th to 23rd day, 0 = non-treated, 100 = complete kill
wheat [8] = test: Test Example 2: soil surface treatment, upland pot test; format: in vivo, Triticum spp.; conditions: active ingredient 1000 g/ha, observed 20th to 28th day
Procedure, shortened: as §2

rice (var. Nihonbare) = test: Test Example 3: paddy pot test, transplanted rice; format: in vivo, Oryza sativa L.; conditions: applied 4th day after transplantation, visually observed 21st day after application, 0 = non-treated, 100 = complete kill
Procedure, shortened: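 Rice (2-leaf stage) was transplanted 3 cm deep into puddled, leveled paddy soil under 3–4 cm flooding. On day 4 after transplanting, diluted wettable powder or emulsifiable concentrate was pipetted onto the water at a predetermined active-ingredient dose. Growth control (0 = untreated, 100 = complete kill) was scored visually 21 days later.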

wheat [9] = test: Test Example 1: foliage treatment, upland pot test; format: in vivo, Triticum spp.; conditions: crop, active ingredient 1000 g/ha, observed 18th to 23rd day, 0 = non-treated, 100 = complete kill
Procedure, shortened: as §1

corn [10] = test: Test Example 2: soil surface treatment, upland pot test; format: in vivo, Zea mays L.; conditions: active ingredient 1000 g/ha, observed 20th to 28th day
Procedure, shortened: as §2

green foxtail [11] = test: Test Example 1: foliage treatment, upland pot test; format: in vivo, Setaria viridis L.; conditions: active ingredient 1000 g/ha, observed 18th to 23rd day, 0 = non-treated, 100 = complete kill
rice [12] = test: Test Example 2: soil surface treatment, upland pot test; format: in vivo, Oryza sativa L.; conditions: active ingredient 1000 g/ha, observed 20th to 28th day
Procedure, shortened: as §2

crabgrass [13] = test: as above; format: in vivo, Digitaria sanguinalis L.; conditions: active ingredient 1000 g/ha, observed 20th to 28th day
Procedure, shortened: as §2

prickly sida [14] = test: as above; format: in vivo, Sida spinosa L.; conditions: active ingredient 1000 g/ha, observed 20th to 28th day
Procedure, shortened: as §2

crabgrass [15] = test: Test Example 1: foliage treatment, upland pot test; format: in vivo, Digitaria sanguinalis L.; conditions: active ingredient 1000 g/ha, observed 18th to 23rd day, 0 = non-treated, 100 = complete kill
green foxtail [16] = test: Test Example 2: soil surface treatment, upland pot test; format: in vivo, Setaria viridis L.; conditions: active ingredient 1000 g/ha, observed 20th to 28th day
Procedure, shortened: as §2

corn [17] = test: Test Example 1: foliage treatment, upland pot test; format: in vivo, Zea mays L.; conditions: crop, active ingredient 1000 g/ha, observed 18th to 23rd day, 0 = non-treated, 100 = complete kill
Procedure, shortened: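 Corn seeds were sown in upland field soil held in a 1/170,000 ha pot and grown to the 2.1 to 3.2 leaf stage. A wettable powder or emulsifiable concentrate of the test compound was diluted with water at 500 L/ha, given 0.1% (v/v) agricultural spreader, and sprayed onto the foliage with a small sprayer. Growth controlling degree (%) was scored visually 18th to 23rd days later, from 0 (non-treated) to 100 (complete kill).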

barnyardgrass [18] = test: Test Example 3: paddy pot test, application under submerged conditions; format: in vivo, Echinochloa crus-galli L.; conditions: submerged application at 0.5 leaf stage, visually observed 14 days after application, 0 = non-treated, 100 = complete kill
Procedure, shortened: (§3)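 Seeds were sown in flooded paddy soil (0.5–1 cm water), wapato tubers were planted 1–2 days later, and water was then held at 3–4 cm. Diluted wettable powder or emulsifiable concentrate was pipetted into the water at the 0.5 leaf or primary leaf stage. Growth control was visually scored at 14 days (0–100%).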

japanese ribbon wapato = test: as above; format: in vivo, Sagittaria pygniaea; conditions: submerged application at primary leaf stage, visually observed 14 days after application, 0 = non-treated, 100 = complete kill
Procedure, shortened: as §3

prickly sida [19] = test: Test Example 1: foliage treatment, upland pot test; format: in vivo, Sida spinosa L.; conditions: active ingredient 1000 g/ha, observed 18th to 23rd day, 0 = non-treated, 100 = complete kill
rice [20] = test: Test Example 1: foliage treatment, upland pot test; format: in vivo, Oryza sativa L.; conditions: crop, active ingredient 1000 g/ha, observed 18th to 23rd day, 0 = non-treated, 100 = complete kill
Procedure, shortened: as §1

redroot pigweed [21] = test: Test Example 1: foliage treatment, upland pot test; format: in vivo, Amaranthus retroflexus L.; conditions: active ingredient 1000 g/ha, observed 18th to 23rd day, 0 = non-treated, 100 = complete kill
japanese bulrush = test: Test Example 3: paddy pot test, application under submerged conditions; format: in vivo, Scirpus juncoides; conditions: submerged application at 0.5 leaf stage, visually observed 14 days after application, 0 = non-treated, 100 = complete kill
Procedure, shortened: as §3

SMILES | Growth controlling degree (%) Barnyardgrass (barnyardgrass [1]) [%] | Growth controlling degree (%) Velvetleaf (velvetleaf [2]) [%] | Growth controlling degree (%) Soyabean (soybean [3]) [%] | Growth controlling degree (%) Redroot pigweed (redroot pigweed [4]) [%] | Growth controlling degree (%) Soybean (soybean [5]) [%] | Growth controlling degree (%) Tall morningglory (tall morningglory) [%] | Growth controlling degree (%) Barnyardgrass (barnyardgrass [6]) [%] | Growth controlling degree (%) Velvetleaf (velvetleaf [7]) [%] | Growth controlling degree (%) wheat (wheat [8]) [%] | Growth controlling degree (%) wheat (wheat [9]) [%] | Growth controlling degree (%) Corn (corn [10]) [%] | Growth controlling degree (%) Green foxtail (green foxtail [11]) [%] | Growth controlling degree (%) Rice (rice [12]) [%] | Growth controlling degree (%) Crabgrass (crabgrass [13]) [%] | Growth controlling degree (%) Prickly sida (prickly sida [14]) [%] | Growth controlling degree (%) Crabgrass (crabgrass [15]) [%] | Growth controlling degree (%) Green foxtail (green foxtail [16]) [%] | Growth controlling degree (%) Corn (corn [17]) [%] | Growth controlling degree (%) Prickly sida (prickly sida [19]) [%] | Growth controlling degree (%) Rice (rice [20]) [%] | other results
CC(C)C(c1cnccc1C(F)(F)F)N(C)C(=O)Cc1ccc(Br)cc1 (centres unmarked) [I-10] | 90 | 60 | 30 | 60 | 90 | 95 | 100 | 95 | 20 | 30 | 10 | 90 | 30 | 100 | 60 | 95 | 100 | 60 | 90 | 30 | Growth controlling degree (%) Rice (rice (var. Nihonbare); active ingredient 500 g/ha): 10%; Growth controlling degree (%) Barnyardgrass (barnyardgrass [18]; active ingredient 500 g/ha): 100%; Growth controlling degree (%) Japanese ribbon wapato (japanese ribbon wapato; active ingredient 500 g/ha): 10%; Growth controlling degree (%) Redroot pigweed (redroot pigweed [21]): 90%; Growth controlling degree (%) Japanese bulrush (japanese bulrush; active ingredient 500 g/ha): 98%
CC(C)C(c1cnccc1C(F)(F)F)N(C)C(=O)Cc1ccccc1Br (centres unmarked) [I-15] | 70 | 60 | 20 | 70 | 40 | 80 | 100 | 70 | 30 | 20 | 40 | 80 | 40 | 100 | 70 | 70 | 100 | 0 | 80 | 10 | Growth controlling degree (%) Rice (rice (var. Nihonbare); active ingredient 250 g/ha): 10%; Growth controlling degree (%) Barnyardgrass (barnyardgrass [18]; active ingredient 250 g/ha): 100%; Growth controlling degree (%) Japanese ribbon wapato (japanese ribbon wapato; active ingredient 250 g/ha): 100%; Growth controlling degree (%) Redroot pigweed (redroot pigweed [21]): 70%; Growth controlling degree (%) Japanese bulrush (japanese bulrush; active ingredient 250 g/ha): 95%
